Reference: ChEMBL document CHEMBL5465560, “Selectivity Literature for EUbOPEN Chemogenomic Library” (2024)

Tests used:
[1] = target: Mitogen-activated protein kinase kinase kinase 11 (Homo sapiens) (UniProt Q16584); details: at 10 µM
[2] = target: Calcium/calmodulin-dependent protein kinase kinase 1 (Homo sapiens) (UniProt Q8N5S9); assay: Selectivity interaction (ProQinase) EUB0000171b CAMKK1
[3] = target: LIM domain kinase 2 (Homo sapiens) (UniProt P53671); assay: Selectivity interaction (KinomeScan (DiscoverX)) EUB0001079a LIMK2; details: at 1 µM
Sequence of LIM domain kinase 2 (Homo sapiens) (P53671 whole entry, looked up, the tested form may be a part): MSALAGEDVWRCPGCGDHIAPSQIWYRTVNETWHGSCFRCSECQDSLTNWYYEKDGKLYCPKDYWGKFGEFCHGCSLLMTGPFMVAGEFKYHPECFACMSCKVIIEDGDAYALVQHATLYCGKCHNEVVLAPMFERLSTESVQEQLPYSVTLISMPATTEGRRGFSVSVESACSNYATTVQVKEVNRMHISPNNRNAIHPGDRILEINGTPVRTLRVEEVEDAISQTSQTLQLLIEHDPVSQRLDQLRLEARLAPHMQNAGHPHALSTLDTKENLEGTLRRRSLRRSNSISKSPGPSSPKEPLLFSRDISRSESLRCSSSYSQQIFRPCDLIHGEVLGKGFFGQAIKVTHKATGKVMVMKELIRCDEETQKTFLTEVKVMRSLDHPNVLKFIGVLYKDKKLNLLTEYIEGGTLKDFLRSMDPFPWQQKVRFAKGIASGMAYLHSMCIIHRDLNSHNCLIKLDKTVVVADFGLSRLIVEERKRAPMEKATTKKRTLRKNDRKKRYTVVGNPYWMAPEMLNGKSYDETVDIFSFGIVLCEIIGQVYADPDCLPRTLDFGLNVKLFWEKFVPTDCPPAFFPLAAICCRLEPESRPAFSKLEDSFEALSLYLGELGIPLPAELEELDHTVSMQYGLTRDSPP

[4] = target: Serine/threonine-protein kinase VRK2 (Homo sapiens) (UniProt Q86Y07); assay: Selectivity interaction (KinomeScan (DiscoverX)) EUB0001079a VRK2; details: at 1 µM
[5] = Selectivity interaction (KinomeScan (DiscoverX)) EUB0000666a CDPK1; details: at 10 µM
[6] = target: TRAF2 and NCK-interacting protein kinase (Homo sapiens) (UniProt Q9UKE5); assay: Selectivity interaction (LanthaScreen Eu Kinase Binding Assay) EUB0001632a TNIK; details: at 10 µM
Sequence of TRAF2 and NCK-interacting protein kinase (Homo sapiens) (Q9UKE5 whole entry, looked up): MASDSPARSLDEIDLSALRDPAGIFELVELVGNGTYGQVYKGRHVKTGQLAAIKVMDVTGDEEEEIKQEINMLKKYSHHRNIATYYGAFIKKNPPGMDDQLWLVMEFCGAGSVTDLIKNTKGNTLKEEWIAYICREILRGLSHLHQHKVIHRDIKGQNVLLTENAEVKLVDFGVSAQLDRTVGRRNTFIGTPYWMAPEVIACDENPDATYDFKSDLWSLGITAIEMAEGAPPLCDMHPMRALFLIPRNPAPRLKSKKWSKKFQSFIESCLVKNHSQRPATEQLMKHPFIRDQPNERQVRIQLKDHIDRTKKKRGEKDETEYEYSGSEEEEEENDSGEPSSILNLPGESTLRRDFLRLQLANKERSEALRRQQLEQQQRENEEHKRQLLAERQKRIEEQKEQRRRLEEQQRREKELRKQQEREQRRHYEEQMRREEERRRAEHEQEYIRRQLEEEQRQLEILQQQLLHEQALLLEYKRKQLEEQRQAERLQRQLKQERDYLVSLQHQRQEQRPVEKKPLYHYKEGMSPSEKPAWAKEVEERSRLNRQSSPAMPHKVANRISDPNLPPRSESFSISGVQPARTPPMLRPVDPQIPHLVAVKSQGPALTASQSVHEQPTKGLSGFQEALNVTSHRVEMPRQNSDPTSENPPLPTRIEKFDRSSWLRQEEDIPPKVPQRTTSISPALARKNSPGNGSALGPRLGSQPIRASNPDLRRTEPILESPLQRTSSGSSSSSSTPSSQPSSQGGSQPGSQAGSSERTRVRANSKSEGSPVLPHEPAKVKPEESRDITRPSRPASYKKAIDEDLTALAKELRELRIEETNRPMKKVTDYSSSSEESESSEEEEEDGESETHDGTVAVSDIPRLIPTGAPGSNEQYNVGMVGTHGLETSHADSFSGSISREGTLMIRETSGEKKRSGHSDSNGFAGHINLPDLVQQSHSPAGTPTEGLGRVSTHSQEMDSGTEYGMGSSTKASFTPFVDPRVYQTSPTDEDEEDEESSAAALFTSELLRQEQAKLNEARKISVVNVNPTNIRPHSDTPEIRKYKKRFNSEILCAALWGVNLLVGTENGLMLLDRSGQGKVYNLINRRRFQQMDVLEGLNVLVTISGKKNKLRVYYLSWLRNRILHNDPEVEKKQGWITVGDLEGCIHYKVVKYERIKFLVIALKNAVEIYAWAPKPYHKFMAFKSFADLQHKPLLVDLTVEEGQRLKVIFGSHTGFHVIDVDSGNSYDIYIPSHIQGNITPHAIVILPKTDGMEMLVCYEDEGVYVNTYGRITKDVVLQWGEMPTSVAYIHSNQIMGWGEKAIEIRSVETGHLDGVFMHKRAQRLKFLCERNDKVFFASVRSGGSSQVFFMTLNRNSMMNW

[7] = target: T1, N-lysine methyltransferase KMT5A (Homo sapiens) (UniProt Q9NQR1); assay: Selectivity interaction (Transferase panel (protein, RNA, and DNA methyltransferases. and EP300 (acetyltransferase))) EUB0000270b SETD8
T1 sequence (whole entry): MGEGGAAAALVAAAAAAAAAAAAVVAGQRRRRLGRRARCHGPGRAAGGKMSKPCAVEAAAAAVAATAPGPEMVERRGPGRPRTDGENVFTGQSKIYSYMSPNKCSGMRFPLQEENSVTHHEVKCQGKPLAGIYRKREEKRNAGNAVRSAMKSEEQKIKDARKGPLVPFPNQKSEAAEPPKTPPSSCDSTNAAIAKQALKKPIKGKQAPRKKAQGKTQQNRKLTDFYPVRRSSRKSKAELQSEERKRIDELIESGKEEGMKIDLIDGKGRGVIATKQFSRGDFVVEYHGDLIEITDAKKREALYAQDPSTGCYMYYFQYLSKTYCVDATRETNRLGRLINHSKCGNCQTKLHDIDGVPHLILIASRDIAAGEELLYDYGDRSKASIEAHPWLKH

[8] = target: Protein arginine N-methyltransferase 3 (Homo sapiens, UniProt O60678); assay: Selectivity interaction (Transferase panel (protein, RNA, and DNA methyltransferases. and EP300 (acetyltransferase))) EUB0000270b PRMT3
Sequence of Protein arginine N-methyltransferase 3 (O60678 2-531 limits assumed): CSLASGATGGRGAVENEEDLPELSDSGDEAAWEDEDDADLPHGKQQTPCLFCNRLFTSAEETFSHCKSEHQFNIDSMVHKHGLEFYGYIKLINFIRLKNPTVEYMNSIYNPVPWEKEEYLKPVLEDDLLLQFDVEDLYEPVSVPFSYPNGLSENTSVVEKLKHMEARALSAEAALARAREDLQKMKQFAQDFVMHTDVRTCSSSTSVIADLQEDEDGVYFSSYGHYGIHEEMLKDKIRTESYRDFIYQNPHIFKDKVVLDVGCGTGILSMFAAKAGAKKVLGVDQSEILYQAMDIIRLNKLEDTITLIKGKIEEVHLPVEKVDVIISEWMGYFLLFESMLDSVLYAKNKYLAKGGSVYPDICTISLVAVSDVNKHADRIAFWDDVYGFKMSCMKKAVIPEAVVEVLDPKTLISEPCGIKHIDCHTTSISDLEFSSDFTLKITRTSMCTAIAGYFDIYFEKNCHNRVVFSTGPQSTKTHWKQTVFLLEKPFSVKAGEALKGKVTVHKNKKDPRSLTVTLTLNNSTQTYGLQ

[9] = target: Tyrosine-protein kinase Lyn (Homo sapiens, UniProt P07948); assay: Selectivity interaction (Kinase panel (Invitrogen)) EUB0000639a LYN; details: at 200 nM
Sequence of Tyrosine-protein kinase Lyn (P07948 2-512 limits assumed): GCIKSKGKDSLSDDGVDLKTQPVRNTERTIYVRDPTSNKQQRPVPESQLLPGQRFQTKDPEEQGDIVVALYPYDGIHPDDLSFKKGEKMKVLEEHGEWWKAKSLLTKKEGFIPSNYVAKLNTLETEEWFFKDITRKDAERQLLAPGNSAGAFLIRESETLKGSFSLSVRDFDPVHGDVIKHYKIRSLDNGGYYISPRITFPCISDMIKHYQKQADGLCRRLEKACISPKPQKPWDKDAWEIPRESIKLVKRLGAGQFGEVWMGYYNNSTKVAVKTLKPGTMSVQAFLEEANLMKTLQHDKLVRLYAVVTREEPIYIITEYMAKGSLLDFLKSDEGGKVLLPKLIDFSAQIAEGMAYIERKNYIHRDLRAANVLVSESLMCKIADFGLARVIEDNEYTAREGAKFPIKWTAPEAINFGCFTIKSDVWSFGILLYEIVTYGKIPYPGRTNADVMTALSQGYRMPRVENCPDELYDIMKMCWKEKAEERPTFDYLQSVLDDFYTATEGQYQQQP

[10] = target: Ribosomal protein S6 kinase alpha-1 (Homo sapiens, UniProt Q15418); assay: Selectivity interaction (ActivX KiNativ screen (kinase selectivity in THP-1 cell lysates)) EUB0000639a RPS6KA1; type: subcellular; details: lysate, at 0.04 µM
[11] = target: T2, Receptor-interacting serine/threonine-protein kinase 4 (Homo sapiens) (UniProt P57078); assay: Selectivity interaction (KinomeScan (DiscoverX)) EUB0000607a RIPK4; details: at 10 µM
T2 sequence (whole entry): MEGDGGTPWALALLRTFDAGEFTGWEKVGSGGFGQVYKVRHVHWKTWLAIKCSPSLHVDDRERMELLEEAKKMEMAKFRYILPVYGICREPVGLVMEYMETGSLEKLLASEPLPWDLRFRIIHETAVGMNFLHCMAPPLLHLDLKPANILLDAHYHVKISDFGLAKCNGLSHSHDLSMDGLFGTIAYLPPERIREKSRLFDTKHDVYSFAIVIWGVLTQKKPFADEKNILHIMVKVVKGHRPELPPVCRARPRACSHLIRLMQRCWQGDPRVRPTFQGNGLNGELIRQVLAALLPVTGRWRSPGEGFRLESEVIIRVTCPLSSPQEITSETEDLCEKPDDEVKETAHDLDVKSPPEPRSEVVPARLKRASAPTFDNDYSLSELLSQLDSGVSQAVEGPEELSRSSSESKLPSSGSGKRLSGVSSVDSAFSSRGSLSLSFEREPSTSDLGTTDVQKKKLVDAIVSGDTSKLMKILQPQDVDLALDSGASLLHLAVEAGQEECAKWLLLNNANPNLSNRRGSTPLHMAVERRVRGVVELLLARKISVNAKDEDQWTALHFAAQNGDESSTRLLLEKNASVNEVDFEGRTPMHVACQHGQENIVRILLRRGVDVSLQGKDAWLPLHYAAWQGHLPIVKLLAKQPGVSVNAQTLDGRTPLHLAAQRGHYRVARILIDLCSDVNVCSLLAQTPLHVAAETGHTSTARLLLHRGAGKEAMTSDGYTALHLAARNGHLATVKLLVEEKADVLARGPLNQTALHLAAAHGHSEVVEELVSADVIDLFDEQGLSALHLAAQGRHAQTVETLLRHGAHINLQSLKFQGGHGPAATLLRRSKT

[12] = target: RAC-alpha serine/threonine-protein kinase (Homo sapiens, UniProt P31749); assay: Selectivity interaction (KinomeScan (DiscoverX)) EUB0001049a AKT1; details: at 1 µM
[13] = target: Fibroblast growth factor receptor 2 (Homo sapiens) (UniProt P21802); assay: Selectivity interaction (KinomeScan (DiscoverX)) EUB0001049a FGFR2; details: at 1 µM
Sequence of Fibroblast growth factor receptor 2 (Homo sapiens) (P21802 22-821 limits assumed): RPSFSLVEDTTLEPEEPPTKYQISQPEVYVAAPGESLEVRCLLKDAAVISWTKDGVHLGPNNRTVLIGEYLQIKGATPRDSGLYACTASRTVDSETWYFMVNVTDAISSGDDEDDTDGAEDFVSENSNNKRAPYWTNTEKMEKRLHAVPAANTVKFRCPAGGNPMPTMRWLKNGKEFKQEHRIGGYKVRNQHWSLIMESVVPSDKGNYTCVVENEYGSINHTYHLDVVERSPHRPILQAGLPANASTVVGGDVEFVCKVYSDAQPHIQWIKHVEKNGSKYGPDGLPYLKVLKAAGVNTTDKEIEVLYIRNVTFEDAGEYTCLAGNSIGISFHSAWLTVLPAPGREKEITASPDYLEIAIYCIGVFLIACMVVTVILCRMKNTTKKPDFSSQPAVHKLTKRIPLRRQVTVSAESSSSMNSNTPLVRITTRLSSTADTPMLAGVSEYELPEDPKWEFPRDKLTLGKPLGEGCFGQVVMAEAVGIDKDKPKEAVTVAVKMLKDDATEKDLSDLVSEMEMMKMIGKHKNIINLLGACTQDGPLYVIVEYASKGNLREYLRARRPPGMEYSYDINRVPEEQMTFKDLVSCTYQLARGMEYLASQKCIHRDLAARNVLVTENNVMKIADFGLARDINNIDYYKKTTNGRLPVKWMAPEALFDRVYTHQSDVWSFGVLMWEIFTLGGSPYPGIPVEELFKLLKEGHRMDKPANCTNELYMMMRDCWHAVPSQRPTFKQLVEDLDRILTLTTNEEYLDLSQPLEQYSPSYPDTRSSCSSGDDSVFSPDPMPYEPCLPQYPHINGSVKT

[14] = target: Serine/threonine-protein kinase WNK3 (Homo sapiens) (UniProt Q9BYP7); assay: Selectivity interaction (KinomeScan (DiscoverX)) EUB0000695a WNK3; details: at 100 nM
[15] = target: Tyrosine-protein kinase CSK (Homo sapiens) (UniProt P41240); assay: Selectivity interaction (ActivX KiNativ screen (ex vivo kinase selectivity in human PBMCs)) EUB0001619a CSK; type: cell-based; details: PBMC, at 1 µM
Sequence of Tyrosine-protein kinase CSK (Homo sapiens) (P41240 2-450 limits assumed): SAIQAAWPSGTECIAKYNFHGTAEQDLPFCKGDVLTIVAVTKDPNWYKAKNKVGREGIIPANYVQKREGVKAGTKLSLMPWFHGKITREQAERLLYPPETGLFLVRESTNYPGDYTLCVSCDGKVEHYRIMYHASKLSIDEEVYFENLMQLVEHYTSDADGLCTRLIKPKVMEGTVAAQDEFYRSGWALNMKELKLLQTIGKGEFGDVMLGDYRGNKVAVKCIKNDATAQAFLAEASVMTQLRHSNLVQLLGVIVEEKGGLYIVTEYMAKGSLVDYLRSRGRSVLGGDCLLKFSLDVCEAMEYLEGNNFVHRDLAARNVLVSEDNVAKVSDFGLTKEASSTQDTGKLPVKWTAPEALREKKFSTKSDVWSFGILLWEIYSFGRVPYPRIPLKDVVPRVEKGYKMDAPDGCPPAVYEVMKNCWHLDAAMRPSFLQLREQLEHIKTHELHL

Sequence of Calcium/calmodulin-dependent protein kinase kinase 1 (Homo sapiens) (Q8N5S9 whole entry, looked up, the tested form may be a part): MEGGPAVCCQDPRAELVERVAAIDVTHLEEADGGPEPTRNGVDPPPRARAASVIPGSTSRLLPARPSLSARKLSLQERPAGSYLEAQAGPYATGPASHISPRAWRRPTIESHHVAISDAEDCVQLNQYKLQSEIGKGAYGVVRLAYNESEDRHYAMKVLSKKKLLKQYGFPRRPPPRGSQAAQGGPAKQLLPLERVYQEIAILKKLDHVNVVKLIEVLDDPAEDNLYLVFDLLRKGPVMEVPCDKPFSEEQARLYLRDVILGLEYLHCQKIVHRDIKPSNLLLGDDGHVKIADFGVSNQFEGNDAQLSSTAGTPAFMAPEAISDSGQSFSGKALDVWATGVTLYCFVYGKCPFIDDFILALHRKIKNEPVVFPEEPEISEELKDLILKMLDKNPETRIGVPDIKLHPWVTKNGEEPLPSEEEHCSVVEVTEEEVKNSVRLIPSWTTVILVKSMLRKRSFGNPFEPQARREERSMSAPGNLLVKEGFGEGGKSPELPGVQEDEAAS

## CCN(CC)CCCCNc1ncc2cc(-c3cc(OC)cc(OC)c3)c(NC(=O)NC(C)(C)C)nc2n1
[1]
  % of control: 100%

## C=CC(=O)Nc1cccc(C(=O)Nc2ccc(Nc3cc(-c4[nH]c(SC)nc4C)ccn3)cc2)c1
[2]; at 1 µM
  % of control: 98%
[2]; at 5 µM
  % of control: 108%

## Nc1cnc(N2CCc3cc(S(=O)(=O)Nc4c(F)cc(Cl)cc4F)cc(N4CCCC4=O)c32)nc1 [TP-020n]
[3]
  % of control: 100%
[4]
  % of control: 100%

## O=C(NOC[C@H](O)CO)c1ccc(F)c(F)c1Nc1ccc(I)cc1F
[5]
  % of control: 78%

## Cn1cc(-n2cnc3c(NCc4nc5cc(Cl)c(Cl)cc5[nH]4)nc(N4CCOCC4)nc32)cn1
[6]
  % of inhibition: -13.9%

## Cc1cc(CN)cc(C)c1-c1ncn(C)c1-c1cncn1C
[7]; at 1 µM
  % activity: > 90%
[7]; at 10 µM
  % activity: > 80%
[8]; at 1 µM
  % activity: > 90%
[8]; at 10 µM
  % activity: > 80%

## CC[C@@H]1[C@H](F)C(=O)N[C@@H]1COc1nccc2cc(C(N)=O)c(OC)cc12 [ZIMLOVISERTIB]
[9]
  % of inhibition: 14.9%
[10]
  % of inhibition: 6.3%

## CNC(=O)Nc1ccc(-c2nc(N3CC4CCC(C3)O4)c3cnn(C4CCC5(CC4)OCCO5)c3n2)cc1
[11]
  % of control: 98%

## COc1cc(Nc2nc(C)cc(-c3cnn4nc(OC)ccc34)n2)cc(C(F)(F)F)c1
[12]
  % of control: 100%
[13]
  % of control: 90%

## Cc1cc(F)c(C(=O)Nc2cccc(-c3nncn3C(C)C)n2)cc1-n1cnc(C2CC2)c1
[14]
  % of control: 100%

## N#Cc1cccc(-c2c[nH]c3ncnc(N4CCOCC4)c23)c1
[15]
  % of inhibition: -2%
